3 compounds from ChEMBL document CHEMBL1135062, “Total synthesis and semi-synthetic approaches to analogues of antibacterial natural product althiomycin” (2002) can be followed below.

Format in all cases: functional
Experiment [1] relates to Saccharomyces cerevisiae. Briefly: Tested for the minimum inhibitory concentration against Saccharomyces cerevisiae NCYC 81.
The test system of experiment [2] is Streptococcus pneumoniae. Briefly: Tested for the minimum inhibitory concentration against Streptococcus pneumoniae 3512.
Experiment [3] deals with Staphylococcus aureus. Briefly: Tested for the minimum inhibitory concentration against Staphylococcus aureus col.
Experiment [4] deals with Bacillus subtilis. Briefly: Tested for the minimum inhibitory concentration against Bacillus subtilis 6633.
Experiment [5] deals with Enterococcus faecalis. Briefly: Tested for the minimum inhibitory concentration against […] faecalis 850E.
Experiment [6] concerns Escherichia coli. Briefly: Tested for the minimum inhibitory concentration against Escherichia coli 1852E PM.
The test system of experiment [7] is Escherichia coli. Briefly: Tested for the minimum inhibitory concentration against Escherichia coli 1852E + 3 ug/mL PMBN.
Experiment [8] has as its system Staphylococcus aureus. Briefly: Tested for the minimum inhibitory concentration against Staphylococcus aureus 853E.

Converted amounts (≈) assume the structure as drawn. A value given as a limit tells only on which side of the number the result lay.

`COC1=CC(=O)N(C(=O)[C@H]2CSC(C(CO)NC(=O)c3csc(/C=N/O)n3)=N2)C1` (some centres undefined): the MIC (in general, the lowest concentration that inhibits growth of the organism) in experiment [1] was above 32 µg/mL; in experiment [2] it was 4 µg/mL (≈ 9.1 µM); in experiment [3], 16 µg/mL (≈ 36.4 µM); in experiment [4], 16 µg/mL (≈ 36.4 µM); in experiment [5], 16 µg/mL (≈ 36.4 µM); in experiment [6] it was 1 µg/mL (≈ 2.28 µM). Also, the MIC in experiment [7] was 1 µg/mL; in experiment [8], 16 µg/mL (≈ 36.4 µM).

`CO/N=C(\C(=O)N[C@@H]1C(=O)N2C(C(=O)O)=C(CSc3nc(=O)c(O)nn3C)CS[C@H]12)c1csc(N)n1` [CEFTRIAXONE]: the MIC in experiment [1] is above 32 µg/mL; in experiment [2], 0.01 µg/mL (≈ 0.018 µM); in experiment [3] it was above 32 µg/mL; in experiment [4] it was 0.25 µg/mL (≈ 0.451 µM); in experiment [5] it was 16 µg/mL (≈ 28.9 µM); in experiment [6] it was 0.06 µg/mL (≈ 0.108 µM). In addition, the MIC in experiment [7] came to 0.01 µg/mL; in experiment [8], 4 µg/mL (≈ 7.21 µM).

For `COC1=CC(=O)N(C(=O)[C@H]2CSC(CNC(C)=O)=N2)C1`, the MIC in experiment [1] is above 32 µg/mL; in experiment [2], 16 µg/mL (≈ 53.8 µM); in experiment [3] it was 32 µg/mL (≈ 108 µM); in experiment [4] it was 16 µg/mL (≈ 53.8 µM); in experiment [5], 32 µg/mL (≈ 108 µM); in experiment [6] it was 16 µg/mL (≈ 53.8 µM). Moreover, the results for the MIC in experiment [7] and in experiment [8] were 8 µg/mL and 32 µg/mL (≈ 108 µM), respectively.
